Details: Liquid, Vibrating tube method

CCC(O)CO (stereo not drawn) [1,2-butanediol]
mass density [kg/m3]
Details	278.15 K	288.15 K	298.15 K	308.15 K	318.15 K	328.15 K	338.15 K	348.15 K	358.15 K
100 kPa	1013.4	1006.2	998.7	991.1	983.4	975.7	967.8	959.7	951.3
1000 kPa	1013.7	1006.5	999.1	991.5	983.8	976.2	968.3	960.2	952
5000 kPa	1015.7	1008.6	1001.2	993.7	986.1	978.6	970.7	962.8	954.6
10000 kPa	1018.1	1011.1	1003.8	996.5	988.9	981.5	973.9	966.2	958.1
15000 kPa	1020.5	1013.5	1006.3	999.1	991.7	984.4	976.8	969.2	961.4
20000 kPa	1022.8	1015.9	1008.8	1001.6	994.3	987.2	979.8	972.2	964.5
25000 kPa	1025	1018.2	1011.3	1004.1	997	989.9	982.6	975.2	967.5
30000 kPa	1027.2	1020.5	1013.6	1006.5	999.4	992.5	985.3	978	970.5
35000 kPa	1029.2	1022.7	1015.9	1008.9	1001.9	995.1	987.9	980.7	973.5
40000 kPa	1031.2	1024.7	1018.2	1011.2	1004.4	997.6	990.5	983.4	976.2
45000 kPa	1033.3	1026.7	1020.3	1013.5	1006.7	999.9	993.1	986.1	978.8
50000 kPa	1035.3	1028.8	1022.5	1015.7	1009	1002.2	995.5	988.6	981.4
55000 kPa	1037.3	1030.8	1024.5	1017.9	1011.3	1004.7	997.9	991.1	984
60000 kPa	1039.2	1033	1026.7	1020	1013.5	1006.9	1000.3	993.4	986.5

OCCO [1,2-ethanediol]
mass density [kg/m3]
Details	278.15 K	288.15 K	298.15 K	308.15 K	318.15 K	328.15 K	338.15 K	348.15 K	358.15 K
100 kPa	1122.4	1115.8	1109	1102.2	1095.2	1088.2	1080.9	1073.6	1066.1
1000 kPa	1122.6	1116	1109.2	1102.4	1095.4	1088.3	1081.2	1073.9	1066.2
5000 kPa	1124.1	1117.6	1110.9	1104.1	1097.1	1090.2	1083.1	1075.8	1068.2
10000 kPa	1126	1119.5	1112.9	1106.1	1099.2	1092.3	1085.4	1078.1	1070.7
15000 kPa	1127.8	1121.5	1114.9	1108.2	1101.3	1094.4	1087.6	1080.4	1073.1
20000 kPa	1129.6	1123.3	–	–	–	–	1089.8	1082.7	1075.4
25000 kPa	1131.4	1125.2	1118.7	1112.1	1105.3	1098.6	1091.9	1084.9	1077.8
30000 kPa	1133.1	1127	1120.6	1114	1107.3	1100.6	1094	1087	1079.9
35000 kPa	1134.8	1128.8	1122.4	1115.9	1109.3	–	–	–	1082.1
40000 kPa	1136.6	1130.6	1124.3	1117.7	1111.2	1104.6	1097.9	1091.3	1084.3
45000 kPa	1138.2	1132.3	1126.1	1119.6	1113.1	1106.5	1099.9	1093.4	1086.5
50000 kPa	1139.9	1134.1	1127.8	1121.4	1115	1108.4	1101.9	1095.3	–
55000 kPa	1141.6	1135.7	1129.6	1123.2	–	–	1103.9	1097.3	1090.7
60000 kPa	1143.3	1137.4	1131.3	1125	1118.6	1112.1	1105.8	1099.4	1092.7

CC(O)CO (stereo not drawn) [1,2-propanediol]
mass density [kg/m3]
Details	278.15 K	288.15 K	298.15 K	308.15 K	318.15 K	328.15 K	338.15 K	348.15 K	358.15 K
100 kPa	1047.1	1039.9	1032.5	1025.3	1017.7	1010	1002.2	994.1	985.8
1000 kPa	1047.3	1040.2	1032.9	1025.5	1018	1010.3	1002.4	994.5	986.2
5000 kPa	1049.2	1042.1	1034.8	1027.5	1020.2	1012.7	1004.8	996.9	988.8
10000 kPa	1051.2	1044.4	1037.2	1030.1	1022.8	1015.4	1007.6	999.9	991.9
15000 kPa	1053.4	1046.7	1039.6	1032.5	1025.4	1018	1010.4	1002.8	995
20000 kPa	1055.5	1048.9	1041.9	1034.9	1027.9	1020.6	1013	1005.5	997.8
25000 kPa	1057.6	1051.1	1044.1	1037.2	1030.3	1023.1	1015.6	1008.2	1000.6
30000 kPa	1059.6	1053.2	1046.3	1039.5	1032.7	1025.6	1018.2	1010.9	1003.4
35000 kPa	1061.6	1055.4	1048.4	1041.6	1035	1027.9	1020.7	1013.4	1006
40000 kPa	1063.6	1057.4	1050.6	1043.8	1037.2	1030.3	1023.2	1016	1008.5
45000 kPa	1065.6	1059.4	1052.5	1046	1039.4	1032.5	1025.5	1018.4	1011.2
50000 kPa	1067.5	1061.4	1054.6	1048.1	1041.5	1034.7	1027.9	1020.9	1013.6
55000 kPa	1069.3	1063.4	1056.6	1050.1	1043.6	1036.9	1030.2	1023.2	1016.1
60000 kPa	1071.4	1065.3	1058.5	1052.2	1045.7	1039	1032.4	1025.6	1018.5

— the NIST ThermoML archive (doi:10.1016/j.jct.2012.08.014)
